Laboratory results as given in PubChem BioAssay (NCI).
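How tested: cells in 96-well plates exposed to compound for 48 hours at five concentrations. TGI denotes the concentration required for complete inhibition of growth.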

Legend:
Test in all cases: NCI anticancer screen, dose series, 48 h
HCT-15 colon = system: HCT-15 colon
MOLT-4 leukemia = system: MOLT-4 leukemia
CCRF-CEM leukemia = system: CCRF-CEM leukemia
UACC-62 melanoma = system: UACC-62 melanoma
PC-3 prostate = system: PC-3 prostate
M14 melanoma = system: M14 melanoma
CAKI-1 renal = system: CAKI-1 renal
SK-MEL-28 melanoma = system: SK-MEL-28 melanoma
DU-145 prostate = system: DU-145 prostate
HCT-116 colon = system: HCT-116 colon
NCI-H522 lung = system: NCI-H522 lung
MCF7 breast = system: MCF7 breast
OVCAR-5 ovarian = system: OVCAR-5 ovarian
SW-620 colon = system: SW-620 colon
NCI-H226 lung = system: NCI-H226 lung
HOP-92 NSCLC = system: HOP-92 NSCLC
MDA-MB-435 = system: MDA-MB-435
A498 renal = system: A498 renal
K-562 leukemia = system: K-562 leukemia
SK-OV-3 ovarian = system: SK-OV-3 ovarian
COLO 205 colon = system: COLO 205 colon
BT-549 breast = system: BT-549 breast
NCI-H23 lung = system: NCI-H23 lung
SF-295 CNS = system: SF-295 CNS
HS 578T breast = system: HS 578T breast
UACC-257 melanoma = system: UACC-257 melanoma
IGROV1 ovarian = system: IGROV1 ovarian
SR leukemia = system: SR leukemia
SK-MEL-5 melanoma = system: SK-MEL-5 melanoma
SNB-75 CNS = system: SNB-75 CNS
OVCAR-8 ovarian = system: OVCAR-8 ovarian
OVCAR-4 ovarian = system: OVCAR-4 ovarian
NCI/ADR-RES ovarian = system: NCI/ADR-RES ovarian
KM12 colon = system: KM12 colon
MALME-3M melanoma = system: MALME-3M melanoma
LOX IMVI melanoma = system: LOX IMVI melanoma
HCC-2998 colon = system: HCC-2998 colon
NCI-H460 lung = system: NCI-H460 lung
TK-10 renal = system: TK-10 renal
MDA-N = system: MDA-N
MDA-MB-231 breast = system: MDA-MB-231 breast
T-47D breast = system: T-47D breast
SN12C renal = system: SN12C renal
UO-31 renal = system: UO-31 renal
SF-268 CNS = system: SF-268 CNS
HOP-62 NSCLC = system: HOP-62 NSCLC
SK-MEL-2 melanoma = system: SK-MEL-2 melanoma
RXF 393 renal = system: RXF 393 renal
U251 CNS = system: U251 CNS
HL-60(TB) leukemia = system: HL-60(TB) leukemia
ACHN renal = system: ACHN renal
A549 NSCLC = system: A549 NSCLC
786-0 renal = system: 786-0 renal
SNB-19 CNS = system: SNB-19 CNS
RPMI-8226 leukemia = system: RPMI-8226 leukemia
EKVX NSCLC = system: EKVX NSCLC
HT29 colon = system: HT29 colon
OVCAR-3 ovarian = system: OVCAR-3 ovarian
SF-539 CNS = system: SF-539 CNS

Q: What does the source list for `Cc1ccc(/C(O)=C/c2nc3ccccc3[nH]c2=O)c(C)c1`?
A: TGI (HCT-15 colon): > 100 µM; TGI (MOLT-4 leukemia): > 100 µM; TGI (CCRF-CEM leukemia): > 100 µM; TGI (UACC-62 melanoma): 43.7 µM; TGI (PC-3 prostate): > 61.5 µM; TGI (M14 melanoma): > 96 µM; TGI (CAKI-1 renal): 18.3 µM; TGI (SK-MEL-28 melanoma): 54.6 µM; TGI (DU-145 prostate): > 70.5 µM; TGI (HCT-116 colon): 55.8 µM; TGI (NCI-H522 lung): 38.4 µM; TGI (MCF7 breast): > 100 µM; TGI (OVCAR-5 ovarian): > 100 µM; TGI (SW-620 colon): > 100 µM; TGI (NCI-H226 lung): 37 µM; TGI (HOP-92 NSCLC): 16.9 µM; TGI (MDA-MB-435): > 100 µM; TGI (A498 renal): 9.12 µM; TGI (K-562 leukemia): > 100 µM; TGI (SK-OV-3 ovarian): 33.6 µM; TGI (COLO 205 colon): > 100 µM; TGI (BT-549 breast): > 57.5 µM; TGI (NCI-H23 lung): > 65 µM; TGI (SF-295 CNS): 53 µM; TGI (HS 578T breast): 59.2 µM; TGI (UACC-257 melanoma): > 75.9 µM; TGI (IGROV1 ovarian): > 59.9 µM; TGI (SR leukemia): > 100 µM; TGI (SK-MEL-5 melanoma): > 92.1 µM; TGI (SNB-75 CNS): 20.3 µM; TGI (OVCAR-8 ovarian): 25.4 µM; TGI (OVCAR-4 ovarian): 6.17 µM; TGI (NCI/ADR-RES ovarian): 55.6 µM; TGI (KM12 colon): > 61.5 µM; TGI (MALME-3M melanoma): 98.8 µM; TGI (LOX IMVI melanoma): > 100 µM; TGI (HCC-2998 colon): > 100 µM; TGI (NCI-H460 lung): 46.8 µM; TGI (TK-10 renal): 21.1 µM; TGI (MDA-N): > 100 µM; TGI (MDA-MB-231 breast): > 46.6 µM; TGI (T-47D breast): > 69.7 µM; TGI (SN12C renal): 69.2 µM; TGI (UO-31 renal): 30.6 µM; TGI (SF-268 CNS): 25 µM; TGI (HOP-62 NSCLC): 34.3 µM; TGI (SK-MEL-2 melanoma): > 80.4 µM; TGI (RXF 393 renal): > 49.2 µM; TGI (U251 CNS): 36.7 µM; TGI (HL-60(TB) leukemia): > 100 µM; TGI (ACHN renal): 30 µM; TGI (A549 NSCLC): > 58.8 µM; TGI (786-0 renal): 14.7 µM; TGI (SNB-19 CNS): > 45.9 µM; TGI (RPMI-8226 leukemia): > 100 µM; TGI (EKVX NSCLC): 56.1 µM; TGI (HT29 colon): > 86.3 µM; TGI (OVCAR-3 ovarian): > 73.7 µM; TGI (SF-539 CNS): 31.6 µM
